Data taken from patent US8916579B2, “5-fluoropyrimidinone derivatives” (Dow AgroSciences, LLC., priority 2009, dated 2014).
Where two headings read alike, the source gives them in different places. Each block holds one compound with its values, some of them ahead of it.

Assays:
[1] = tested on: Mycosphaerella graminicola; anamorph: Septoria tritici; Bayer code SEPTTR; test: Fungicidal activity: leaf blotch of wheat, greenhouse wheat plants (variety Yuma), percent disease control; format: in vivo; conditions: Zymoseptoria tritici
Experimental: Evaluation of Fungicidal Activity: Leaf Blotch of Wheat (Mycosphaerella graminicola; anamorph: Septoria tritici; Bayer code SEPTTR)
Wheat plants (variety Yuma) were grown from seed in a greenhouse in 50% mineral soil/50% soil-less Metro mix until the first leaf was fully emerged, with 7-10 seedlings per pot. These plants were inoculated with an aqueous spore suspension of Septoria tritici either prior to or after fungicide treatments. After inoculation the plants were kept in 100% relative humidity (one day in a dark dew chamber followed by two to three days in a lighted dew chamber) to permit spores to germinate and infect the leaf. The plants were then transferred to a greenhouse for disease to develop.
The effectiveness of the test compounds in controlling disease was determined by assessing the severity of disease on treated plants, then converting the severity to percent control based on the level of disease on untreated, inoculated plants. • In each case of Table II the rating scale is as follows: […]

[2] = 24 h, One-Day Protectant (1DP), 100 ppm, wheat plants, read-out: SEPTTR 100 PPM 1DP (% Disease Control rating)
[3] = 72 h, Three-Day Curative (3DC), 100 ppm, wheat plants, read-out: SEPTTR 100 PPM 3DC (% Disease Control rating)

Compound: COCCOCn1cc(F)c(N)nc1=O [Compound 16]
pest or weed control at 100 ppm [1, 2]: 0 to 25% | pest or weed control at 100 ppm [1, 3]: 0 to 25% | melting point: 160 to 163 °C

Compound: CN(C)/C=N/c1nc(=O)n(Cc2ccccc2)cc1F [Compound 6]
pest or weed control at 100 ppm [1, 2]: 0 to 25% | pest or weed control at 100 ppm [1, 3]: 0 to 25% | melting point: 186 to 188 °C

Compound: CCOC(=O)Cn1cc(F)c(/N=C/N(C)C)nc1=O [Compound 36]
pest or weed control at 100 ppm [1, 2]: 51 to 75% | pest or weed control at 100 ppm [1, 3]: 26 to 50% | melting point: 196 to 199 °C

Compound: Nc1nc(=O)n(CCc2ccc(Cl)cc2)cc1F [Compound 31]
pest or weed control at 100 ppm [1, 2]: 0 to 25% | pest or weed control at 100 ppm [1, 3]: 76 to 100% | melting point: 252 to 254 °C

Compound: Nc1nc(=O)n(-c2ccsc2)cc1F [Compound 39, 4-amino-5-fluoro-1-(thiophen-3-yl)pyrimidin-2(1H)-one]
pest or weed control at 100 ppm ([1]; 24 h, read-out: SEPTTR 100 PPM 1DP (% Disease Control rating)): 0 to 25% | pest or weed control at 100 ppm ([1]; 72 h, read-out: SEPTTR 100 PPM 3DC (% Disease Control rating)): 76 to 100% | melting point: 228 to 229 °C

Compound: Nc1nc(=O)n(CC2CCOC2)cc1F (stereo not drawn) [Compound 32]
pest or weed control at 100 ppm [1, 2]: 76 to 100% | pest or weed control at 100 ppm [1, 3]: 76 to 100% | melting point: 255 °C (dec.)

Second part, led by results:

melting point: 225 to 227 °C
Compound: Cc1ccc(-n2cc(F)c(N)nc2=O)cc1 [Compound 43]
pest or weed control at 100 ppm [1, 2]: 26 to 50% | pest or weed control at 100 ppm [1, 3]: 0 to 25%

melting point: 211 to 213 °C
Compound: CN(C)/C=N/c1nc(=O)n(-c2ccsc2)cc1F [Compound 56, (E)-N′-(5-fluoro-2-oxo-1-(thiophen-3-yl)-1,2-dihydropyrimidin-4-yl)-N,N-dimethylformimidamide]
pest or weed control at 100 ppm [1, 2]: 26 to 50% | pest or weed control at 100 ppm [1, 3]: 51 to 75%

melting point: 146 to 147.6 °C
Compound: CCCCCNC(=O)Nc1nc(=O)n(Cc2cccnc2)cc1F [Compound 89]
pest or weed control at 100 ppm [1, 2]: 0 to 25% | pest or weed control at 100 ppm [1, 3]: 26 to 50%

melting point: 244.8 to 245.6 °C
Compound: COc1ccc(-n2cc(F)c(N)nc2=O)cc1OC [Compound 40]
pest or weed control at 100 ppm [1, 2]: 0 to 25% | pest or weed control at 100 ppm [1, 3]: 0 to 25%

melting point: 196.1 to 198 °C
Compound: COc1ccc(-n2cc(F)c(/N=C/N(C)C)nc2=O)cc1OC [Compound 57]
pest or weed control at 100 ppm [1, 2]: 0 to 25% | pest or weed control at 100 ppm [1, 3]: 0 to 25%
